Literature values as cited in US7772273B2 (LifeCycle Pharma A/S, priority 2006, dated 2010).
Read-outs that look alike come from different tables or passages of the source.

Experiments:
[1] = at 25° C.
[2] = oral

NC(CO)(CO)CO [Trometamol, 2-amino-2-(hydroxymethyl)-1,3-propanediol]
Water solubility [1]: about 550 mg/mL

CC(C)c1c(C(=O)Nc2ccccc2)c(-c2ccccc2)c(-c2ccc(F)cc2)n1CCC(O)CC(O)CC(=O)O (stereo not drawn) [atorvastatin, 2-(4-fluorophenyl)-β,δ-dihydroxy-5-(1-methylethyl)-3-phenyl-4-[(phenylamino)carbonyl]-1H-pyrrole-1-heptanoic acid]
LDL-C reduction (LDL-C; given with or without food): similar | LDL-C reduction (LDL-C; regardless of the time of day of drug administration): the same | Systemic availability of HMG-CoA reductase inhibitory activity [2]: approximately 30%
